Measurements published in US20220073496A1, “NOVEL QUINOLINE DERIVATIVE INHIBITOR” (Nanjing Transthera Biosciences Co., Ltd., priority 2018, published 2022).

Assays:
Tyro-3 (h) = target: T1, Tyro-3 (h) (Homo sapiens, UniProt Q06418); assay: Enzymatic activity test, Tyro-3 (h); assay type: biochemical; details: 10 μM [γ-33P]-ATP, 40 minutes, room temperature
T1 construct: purchased
T1 sequence (Q06418 41-890): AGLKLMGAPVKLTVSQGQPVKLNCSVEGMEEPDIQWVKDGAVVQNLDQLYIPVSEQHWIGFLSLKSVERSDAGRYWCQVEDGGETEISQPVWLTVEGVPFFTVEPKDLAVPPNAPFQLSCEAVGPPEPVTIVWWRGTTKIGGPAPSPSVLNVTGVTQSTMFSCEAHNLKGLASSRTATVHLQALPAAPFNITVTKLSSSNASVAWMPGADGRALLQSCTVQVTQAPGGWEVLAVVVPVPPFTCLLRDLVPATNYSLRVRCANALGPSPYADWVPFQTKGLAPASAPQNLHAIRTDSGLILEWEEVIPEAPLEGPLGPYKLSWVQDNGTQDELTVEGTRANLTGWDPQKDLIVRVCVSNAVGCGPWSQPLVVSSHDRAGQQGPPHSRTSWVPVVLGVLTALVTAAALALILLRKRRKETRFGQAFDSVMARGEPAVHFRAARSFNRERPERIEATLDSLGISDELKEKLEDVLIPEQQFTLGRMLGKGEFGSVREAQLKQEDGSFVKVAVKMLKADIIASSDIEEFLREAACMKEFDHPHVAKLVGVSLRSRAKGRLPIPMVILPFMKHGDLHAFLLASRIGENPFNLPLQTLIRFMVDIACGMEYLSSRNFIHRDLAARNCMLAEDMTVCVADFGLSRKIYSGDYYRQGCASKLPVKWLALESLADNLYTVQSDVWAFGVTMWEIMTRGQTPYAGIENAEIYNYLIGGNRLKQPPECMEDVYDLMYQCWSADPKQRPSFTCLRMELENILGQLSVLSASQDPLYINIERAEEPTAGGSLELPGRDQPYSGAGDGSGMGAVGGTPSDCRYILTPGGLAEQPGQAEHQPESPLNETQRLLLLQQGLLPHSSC
Description: Assay 3: Enzymatic Activity Test of the Compounds of the Present Invention
Test substances: the compounds of the present invention, wherein the structures and preparations thereof were as described above.
(1) Preparation of the Compound Stock Solution
The compound was dissolved in 100% DMSO to prepare a stock solution with a maximum concentration of 500 μM.
(2) Preparation of the Compound Working Solution
The compound stock solution was diluted to final concentrations of 500, 150, 50, 15, 5, 1.5, 0.5, 0.15 and 0.05 μM to become the compound working solutions (50×).
(3) Preparation of Different Enzyme Reaction Solutions
The Tyro3 (h) enzyme was dissolved in 8 mM MOPS (pH 7.0), 0.2 mM EDTA, 1 mM MnCl2, and 250 μM KVEKIGEGTYGVVYK to prepare an enzyme solution having a final concentration of 38 nM. The enzymatic reaction was activated by using 10 mM magnesium acetate and 10 μM [γ-^33P]-ATP to form an Mg/ATP mixed solution.
In a 384-well plate, the compound working solution was added to final concentrations of 10000, 3000, 1000, 300, 100, 30, 10, 3, and 1 nM. Then different enzyme reaction solutions prepared according to the above conditions were added. The incubation was carried out for 40 minutes at room temperature. The test was terminated by the addition of a 0.5% phosphoric acid solution. 10 μL of the reaction solution was taken and dropped to the P30 filter paper. The filter paper was washed 4 times with 0.425% phosphoric acid solution and once with methanol, and then placed on a scintillation counter. The […] IC50 values were calculated using GraphPad 5.0 software.

H1299 cell pAxl = target: T2, H1299 cell pAxl (Homo sapiens, UniProt P30530); assay: Inhibitory activity on the cell pAxl (Western Blot); assay type: cell-based; details: H1299 cells, compound 1.1, 3.3, 10, 30 nM, hGAS6 200 ng/mL
T2 construct: endogenous in cells; host or cells: H1299
T2 sequence (P30530 26-894): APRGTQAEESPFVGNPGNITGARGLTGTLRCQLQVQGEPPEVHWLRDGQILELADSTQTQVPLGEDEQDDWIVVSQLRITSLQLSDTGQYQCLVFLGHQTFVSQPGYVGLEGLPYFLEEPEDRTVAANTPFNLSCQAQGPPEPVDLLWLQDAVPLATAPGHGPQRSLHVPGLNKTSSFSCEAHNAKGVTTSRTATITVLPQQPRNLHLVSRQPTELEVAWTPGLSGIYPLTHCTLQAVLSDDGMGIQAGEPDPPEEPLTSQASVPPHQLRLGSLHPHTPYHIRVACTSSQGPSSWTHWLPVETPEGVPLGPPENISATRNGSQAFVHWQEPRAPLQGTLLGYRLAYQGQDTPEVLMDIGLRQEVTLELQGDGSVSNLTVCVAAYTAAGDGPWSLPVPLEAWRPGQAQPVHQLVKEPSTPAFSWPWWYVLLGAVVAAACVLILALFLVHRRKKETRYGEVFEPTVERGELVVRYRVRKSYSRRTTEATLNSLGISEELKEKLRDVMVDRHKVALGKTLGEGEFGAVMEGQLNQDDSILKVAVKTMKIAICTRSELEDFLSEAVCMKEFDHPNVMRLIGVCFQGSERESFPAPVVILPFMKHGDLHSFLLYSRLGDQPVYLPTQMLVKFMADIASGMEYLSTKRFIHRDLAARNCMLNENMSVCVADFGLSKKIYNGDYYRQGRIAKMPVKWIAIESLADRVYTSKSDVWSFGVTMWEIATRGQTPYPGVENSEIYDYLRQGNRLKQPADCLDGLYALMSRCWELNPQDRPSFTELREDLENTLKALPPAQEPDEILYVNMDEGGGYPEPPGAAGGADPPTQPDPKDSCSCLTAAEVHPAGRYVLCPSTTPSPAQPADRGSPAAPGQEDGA
Description: Assay 5: Test for Inhibitory Activities of the Compounds of the Present Invention on the Cell pAxl
H1299 is a non-small cell lung cancer cell.
Test substances: the compounds of the present invention, wherein the structures thereof were as described above.
Test equipment: protein electrophoresis apparatus (manufactured by Bio Rad), transfer unit (manufactured by Bio Rad), exposure unit (manufactured by Tanon), CO2, cell incubator (manufactured by Thermo).
The H1299 cells were inoculated in a 6-well plate (containing 10% FBS 1640 medium, 5×10^5 cells per well), and adherent cells were cultivated at 37° C. in a 5% CO2 condition for 18 hours. The cells were starved overnight. Different concentrations of compounds were added. The final compound concentrations were 1.1, 3.3, 10, and 30 nM, and the final DMSO content was 1‰. The negative control wells contained the medium containing 1‰ DMSO. After incubating at 37° C. in a 5% CO2 condition for 60 minutes, hGAS6 (R&D, final concentration 200 ng/mL) was added to each well. After further incubating for 60 minutes, the cell total protein was extracted for Western Blot and the […] values were calculated using GraphPad 5.0 software. The inhibitory activity of the compound on the cell pAxl was examined.

Compound	IC50 (Tyro-3 (h))	IC50 (H1299 cell pAxl)
COc1cc2nccc(Oc3ccc(NC(=O)c4cn(C(C)C)nc(-c5ccc(F)cc5)c4=O)cn3)c2cc1OC [Compound 38, N-(6-((6,7-dimethoxyquinolin-4-yl)oxy)pyridin-3-yl)-6-para-fluorophenyl-2-isopropyl-5-oxo-2,5-dihydropyridazine-4-carboxamide]	93 nM	3.3 nM
COc1cc2nccc(Oc3cnc(NC(=O)c4cn(C(C)C)nc(-c5ccc(F)cc5)c4=O)nc3)c2cc1OC [Compound 39, N-(5-((6,7-dimethoxyquinolin-4-yl)oxy)pyrimidine-2-yl)-6-(4-fluorophenyl)-2-isopropyl-5-oxo-2,5-dihydropyridazine-4-carboxamide]	36 nM	3.3 nM
COc1cc2nccc(Oc3ncc(NC(=O)c4cn(C(C)C)nc(-c5ccc(F)cc5)c4=O)cn3)c2cc1OC [Compound 40, N-(2-((6,7-dimethoxyquinolin-4-yl)oxy)pyrimidine-5-yl)-6-(4-fluorophenyl)-2-isopropyl-5-oxo-2,5-dihydropyridazine-4-carboxamide]	143 nM	10 nM
COc1cc2nccc(Oc3ccc(NC(=O)c4cn(C(C)C)nc(-c5ccc(F)cc5)c4=O)nc3)c2cc1OC [Compound 41, N-(5-((6,7-dimethoxyquinolin-4-yl)oxy)pyridin-2-yl)-6-(4-fluorophenyl)-2-isopropyl-5-oxo-2,5-dihydropyridazine-4-carboxamide]	65 nM	< 10 nM
